These are literature values, as cited in PMC3433420 (PLoS ONE, 2012).

Like-named read-outs stand apart in the source and are kept apart here.

This series addresses SH2 and PTB domains. The note with it: cited from earlier work. The source says: Supplement pone.0044471.s022.xlsx, sheet "Most recent PM interactions" | column: Kd || Supplement pone.0044471.s022.xlsx, sheet "All original PM interactions" | column: Kd
Setting [1] is: protein PLCG2-NC, ref Kaushansky et al. Chem and Biol 2008.

What is called Kd is the concentration at which binding is half-saturated. With “DAEEpYLVPQQGFd [ErbB2 pY1023, N-terminally rhodamine-labeled 13-mer phosphopeptide]”, the Kd (protein ABL2, ref Jones et al. 2006 / Kaushansky et al. Chem and Biol 2008) was 2000 nM; the dissociation constant Kd (protein BLK, ref Jones et al. 2006 / Kaushansky et al. Chem and Biol 2008) was 2000 nM; the Kd (protein CRK, ref Jones et al. 2006 / Kaushansky et al. Chem and Biol 2008) was 2000 nM; the Kd (protein CRKL, ref Jones et al. 2006 / Kaushansky et al. Chem and Biol 2008) is 2000 nM; the Kd (protein DAPP1, ref Jones et al. 2006 / Kaushansky et al. Chem and Biol 2008) is 2000 nM; the Kd (protein FGR, ref Jones et al. 2006 / Kaushansky et al. Chem and Biol 2008) is 2000 nM. The Kd by setting is: (protein ITK, ref Jones et al. 2006 / Kaushansky et al. Chem and Biol 2008) 2000 nM; (protein LYN, ref Jones et al. 2006 / Kaushansky et al. Chem and Biol 2008) 2000 nM; (protein NCK2, ref Jones et al. 2006 / Kaushansky et al. Chem and Biol 2008) 2000 nM; (protein PIK3R1-C, ref Jones et al. 2006 / Kaushansky et al. Chem and Biol 2008) 2000 nM; (protein PIK3R1-NC, ref Jones et al. 2006 / Kaushansky et al. Chem and Biol 2008) 1640 nM; (protein PIK3R2-N, ref Jones et al. 2006 / Kaushansky et al. Chem and Biol 2008) 1950 nM. Moreover, the Kd (protein PIK3R2-NC, ref Jones et al. 2006 / Kaushansky et al. Chem and Biol 2008) was 2000 nM; the Kd (protein PIK3R3-N, ref Jones et al. 2006 / Kaushansky et al. Chem and Biol 2008) was 1930 nM; the Kd (protein PIK3R3-NC, ref Jones et al. 2006 / Kaushansky et al. Chem and Biol 2008) is 530 nM; the dissociation constant (Kd) (protein PLCG1-C, ref Jones et al. 2006 / Kaushansky et al. Chem and Biol 2008) is 1460 nM; the Kd (protein PLCG1-NC, ref Jones et al. 2006 / Kaushansky et al. Chem and Biol 2008) was 2000 nM; the Kd (protein PTPN6-C, ref Jones et al. 2006 / Kaushansky et al. Chem and Biol 2008) was 2000 nM. Also, the Kd was 2000 nM (protein RASA1-N, ref Jones et al. 2006 / Kaushansky et al. Chem and Biol 2008); 2000 nM (protein RASA1-NC, ref Jones et al. 2006 / Kaushansky et al. Chem and Biol 2008); 2000 nM (protein SH2B2, ref Jones et al. 2006 / Kaushansky et al. Chem and Biol 2008); 2000 nM (protein SH2D3A, ref Jones et al. 2006 / Kaushansky et al. Chem and Biol 2008); 2000 nM (protein SHC1-PTB, ref Jones et al. 2006 / Kaushansky et al. Chem and Biol 2008); 2000 nM (protein SHC2-PTB, ref Jones et al. 2006 / Kaushansky et al. Chem and Biol 2008). For the same substance, the Kd was 2000 nM (protein SHC3, ref Jones et al. 2006 / Kaushansky et al. Chem and Biol 2008); 2000 nM (protein SLA2, ref Jones et al. 2006 / Kaushansky et al. Chem and Biol 2008); 2000 nM (protein SLA, ref Jones et al. 2006 / Kaushansky et al. Chem and Biol 2008); 2000 nM (protein SOCS1, ref Jones et al. 2006 / Kaushansky et al. Chem and Biol 2008); 2000 nM (protein SOCS2, ref Jones et al. 2006 / Kaushansky et al. Chem and Biol 2008); 760 nM (protein SRC, ref Jones et al. 2006 / Kaushansky et al. Chem and Biol 2008). The equilibrium dissociation constant (Kd) runs as follows: (protein SUPT6H, ref Jones et al. 2006 / Kaushansky et al. Chem and Biol 2008) 910 nM; (protein SYK-NC, ref Jones et al. 2006 / Kaushansky et al. Chem and Biol 2008) 370 nM; (protein TEC, ref Jones et al. 2006 / Kaushansky et al. Chem and Biol 2008) 2000 nM; (protein TENC1, ref Jones et al. 2006 / Kaushansky et al. Chem and Biol 2008) 2000 nM; (protein VAV1, ref Jones et al. 2006 / Kaushansky et al. Chem and Biol 2008) 2000 nM; (protein VAV2, ref Jones et al. 2006 / Kaushansky et al. Chem and Biol 2008) 2000 nM. Moreover, the Kd runs as follows: (protein VAV3, ref Jones et al. 2006 / Kaushansky et al. Chem and Biol 2008) 2000 nM; (protein YES1, ref Jones et al. 2006 / Kaushansky et al. Chem and Biol 2008) 1170 nM.

Turning to “DEKEpYNADGGKMd [ErbB4 pY875, N-terminally rhodamine-labeled 13-mer phosphopeptide]”, the Kd under setting [1] was 1140 nM.

In the case of “DETEpYHADGGKVd [ErbB2 pY877, N-terminally rhodamine-labeled 13-mer phosphopeptide]”, the Kd is 720 nM (protein BLK, ref Kaushansky et al. Chem and Biol 2008); 650 nM (protein PLCG2-N, ref Kaushansky et al. Chem and Biol 2008); 1100 nM under setting [1]; 1400 nM (protein RASA1-NC, ref Kaushansky et al. Chem and Biol 2008); 1890 nM (protein YES1, ref Kaushansky et al. Chem and Biol 2008).
